Test results: US20260241039A1, “FLUORESCENT PROBES FOR MAGL” (Hoffmann-La Roche Inc., priority 2022, published 2026)

What follows are compounds tested against T1, hMAGL (Homo sapiens, UniProt Q99685) (assay: 2-AG assay: MAGL inhibitory activity, hydrolysis of 2-arachidonoylglycerol to arachidonic acid followed by mass spectrometry). Conditions: 15 min pre-incubation at RT, 30 min reaction at RT, 8 μM 2-arachidonoylglycerol.
T1 sequence (Q99685 1-303): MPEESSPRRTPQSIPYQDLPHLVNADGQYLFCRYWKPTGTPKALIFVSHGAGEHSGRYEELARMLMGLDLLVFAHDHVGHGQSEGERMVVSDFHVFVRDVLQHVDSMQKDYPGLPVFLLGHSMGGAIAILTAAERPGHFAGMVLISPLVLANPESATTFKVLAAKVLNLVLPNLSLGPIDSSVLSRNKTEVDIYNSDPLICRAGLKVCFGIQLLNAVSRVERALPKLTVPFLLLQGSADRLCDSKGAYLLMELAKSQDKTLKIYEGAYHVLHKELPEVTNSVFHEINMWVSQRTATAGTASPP
Assay type: biochemical
Description: Compounds were profiled for MAGL inhibitory activity by determining the enzymatic activity by following the hydrolysis of the natural substrate 2-arachidonoylglycerol (2-AG) resulting in arachidonic acid, which can be followed by mass spectrometry. This assay is hereinafter abbreviated “2-AG assay”.
The 2-AG assay was carried out in 384 well assay plates (PP, Greiner Cat #784201) in a total volume of 20 μL. Compound dilutions were made in 100% DMSO (VWR Chemicals 23500.297) in a polypropylene plate in 3-fold dilution steps to give a final concentration range in the assay from 12.5 μM to […]. 0.25 μL compound dilutions (100% DMSO) were added to 9 μL MAGL in assay buffer (50 mM TRIS (GIBCO, 15567-027), 1 mM EDTA (Fluka, 03690-100 mL), 0.01% (v/v) Tween. After shaking, the plate was incubated for 15 min at RT. To start the reaction, 10 μL 2-arachidonoylglycerol in assay buffer was added. The final concentrations in the assay was […] and 8 μM 2-arachidonoylglyerol. After shaking and 30 min incubation at RT, the reaction was quenched by the addition of 40 μL of ACN containing 4 μM of d8-arachidonic acid. The amount of arachidonic acid was traced by an online SPE system (Agilent Rapidfire) coupled to a triple quadrupole mass spectrometer (Agilent 6460). A C18 SPE cartridge (G9205A) was used in an ACN/water liquid setup. The mass spectrometer was operated in negative electrospray mode following the mass transitions 303.1→259.1 for arachidonic acid and 311.1→267.0 for d8-arachidonic acid. The activity of the compounds was calculated based on the ratio of intensities [arachidonic acid/d8-arachidonic acid].

Row | IC50 [nM] | Compound
1 | 667 | O=C1CO[C@H]2CCN(C(=O)N3CC(COc4cc(=O)oc5ccccc45)C3)C[C@H]2N1 [Example 3, (4aR,8aS)-6-(3-(((2-oxo-2H-chromen-4-yl)oxy)methyl)azetidine-1-carbonyl)hexahydro-2H-pyrido[4,3-b][1,4]oxazin-3(4H)-one]
2 | 3.99 | 2-(2-((5,5-difluoro-5H-4λ^4,5λ^4-dipyrrolo[1,2-c:2′,1′-f][1,3,2]diazaborinin-10-yl)oxy)-7-azaspiro[3.5]nonane-7-carbonyl)-7-oxa-2,5-diazaspiro[3.4]octan-6-one [Example 13]
3 | 298 | O=C1CO[C@H]2CCN(C(=O)N3CC4(CC(Oc5cc(=O)oc6ccccc56)C4)C3)C[C@H]2N1 [Example 4, (4aR,8aS)-6-(6-((2-oxo-2H-chromen-4-yl)oxy)-2-azaspiro[3.3]heptane-2-carbonyl)hexahydro-2H-pyrido[4,3-b][1,4]oxazin-3(4H)-one]
4 | 43.3 | O=C1CO[C@H]2CCN(C(=O)N3CC4(CC(=CC5=C6C=CC=[N+]6[B-](F)(F)n6cccc65)C4)C3)C[C@H]2N1 [Example 15, (4aR,8aS)-6-(6-((5,5-difluoro-5H-4λ^4, 5λ^4-dipyrrolo[1,2-c:2,1′-f][1,3,2]diazaborinin-10-yl)methylene)-2-azaspiro[3.3]heptane-2-carbonyl)hexahydro-2H-pyrido[4,3-b][1,4]oxazin-3(4H)-one]

Row | Compound | IC50 [nM]
5 | 2-(6-((5,5-difluoro-5H-4λ^4,5λ^4-dipyrrolo[1,2-c:2′,1′-f][1,3,2]diazaborinin-10-yl)oxy)-2-azaspiro[3.3]heptane-2-carbonyl)-7-oxa-2,5-diazaspiro[3.4]octan-6-one [Example 11] | 1.76
